Data on three compounds can be found in patent publication US6399583B1, “Hybrid anthracyclines from genetically engineered streptomyces galilaeus strains, process for production and uses thereof” (Galilaeus Oy, priority 1998, dated 2002).

One experiment concerns B16-F0 melanoma. The experiment can be described thus: Cytotoxicity assay, ATP detection, B16-F0. It counts as cell-based, mouse. Conditions: B16-F0 cells in vitro, read-out: ED50 B16-F0. The procedure:
(§1) The cytotoxicity tests were performed in 96-well microtiter plates (sterile white plates with clear bottom, Corning Costar Corporation, Cambridge, Mass., USA). The anthracyclines were pipetted into the plates in 10 μl of ethanol, pure ethanol was used for control plates. Daunorubicin and aclarubicin were used as positive controls. When the ethanol had evaporated, the cells were seeded into the plates in 100 μl of appropriate medium. The number of cells seeded per well was 2500 with MES-SA, 3000 with MES-SA/D×5, 3000 with LL/2, 2000 with B16-F0 and B16-F1, 2000 with KLN-205 and 8000 with MLTC-1. The ATP content of the cells was measured after incubating the cells for three days at 37° C. with 5% CO2.
(§2) The growth medium was removed by turning the plates over, and 200 μl of ATP extraction reagent, Somalyze, were added to the wells. The plates were then incubated for 30 minutes at room temperature. The ATP measurement was performed with Luminoskan luminometer (Labsystems Oy, Helsinki, Finland) at 22° C. 20 μl of ATP monitoring reagent containing luciferin and luciferase was dispensed, and an integral measurement of 10 s with 2 s lag time was performed for each well. All reagents used were supplied by Bio-Orbit Oy, Turku, Finland.
(§3) The direct luminometer output (in relative light units, RLUS) was used to calculate the cytotoxic effect. This light signal is directly proportional to the amount of […] in a wide range (determined with Bio-Orbit ATP standard, data not shown). On the other hand, the amount of ATP is directly proportional to the amount of living cells (Kangas et al., 1984). The results are expressed as percentages of the control value of untreated cells. An IC50 value (the drug concentration resulting to an ATP signal of 50% of the untreated control signal) was graphically estimated from the % of control vs. drug concentration plot.
(§4) H075-4a was also tested with several mouse cell lines in vitro (all were purchased from ATCC, Rockville, Md., USA): Lewis lung carcinoma (LL/2) (CRL-1642), B16-F0 melanoma (CRL-6322), B16-F1 melanoma (CRL-6323), KLN-205 lung squamous cell carcinoma (CRL-1453) and MLTC-1 leydig cell tumor (CRL-2065) using daunomycin, aclarubicin and H075-1a (MA 144U1) as references.
(§5) All cells grew as monolayers and were cultured at 37° C. with 5% CO2 according to ATCC standard instructions for each cell line: LL/2 in Dulbecco's modified Eagle's medium with 4.5 g/l glucose and 10% FCS, B16-F0 and B16-F1 in MEM (Eagle) in Earle's BSS with non-essential amino acids and 10% FCS, KLN-205 in MEM (Eagle) in Earle's BSS with non-essential amino acids and 10% FCS, MLTC-1 in RPMI 1640 with 25 mM HEPES and 10% FBS. All media were purchased from Gibco BRL, the serum was Gibco BRL Foetal Bovine Serum. […]

Experiment [1] deals with MES-SA/D×5 uterine sarcoma cells (doxorubicin-resistant, MDR). The experiment can be described thus: Cytotoxicity assay, luminescence ATP detection, MES-SA/D×5. It counts as cell-based, human. Conditions: MES-SA/D×5 cells, three days incubation, ATP content, highest concentration 10^-5 M, read-out: ED50 (nM) MES-SA/D × 5. The procedure:
(§6) The cytotoxicities of the new anthracyclines were tested in vitro with two cell lines: human uterine sarcomas MES-SA (CRL-1976; American Type Culture Collection (ATCC), Rockville, Md., USA) and MES-SA/D×5 (CRL-1977; ATCC, Rockville, Md., USA). MES-SA/D×5 has been developed by growing MES-SA cells in increasing concentrations of doxorubicin (Harker and Sikic, 1985).
(§7) Monolayer cultures were grown in McCoy's 5A medium with L-glutamine (Gibco BRL) supplemented with 10% FBS (Foetal Bovine Serum, Gibco BRL). No antibiotics were added. As the resistance is stable for at least 20 passages, the MES-SA/D×5 cells were grown without anthracycline selection (Harker and Sikic, 1985). Cells were maintained at 37° C. with 5% CO2 and subcultured every 3-5 days.
as §1, §2, §3

The test system of another experiment is B16-F1 melanoma. Description: Cytotoxicity assay, ATP detection, B16-F1. It counts as cell-based, mouse. Conditions: B16-F1 cells in vitro, read-out: ED50 B16-F1. The procedure: as §1, §2, §3, §4, §5
Experiment [2] has as its system Lewis lung carcinoma (LL/2). The experiment can be described thus: Cytotoxicity assay, ATP detection, LL/2. It counts as cell-based, mouse. Conditions: LL/2 cells in vitro, read-out: ED50 LL/2. Here is the method:
as §1, §2, §3, §4, §5

The next experiment has as its system SK-N-MC. The experiment can be described thus: Cytotoxicity assay, ATP detection, SK-N-MC. The class given is cell-based. Conditions: SK-N-MC cells in vitro; read-out: ED50 SK-N-MC.
Experiment [3] deals with L1210 mouse lymphocytic leukemia cells. Description: Flow cytometry (mode of action), cell cycle phases. It counts as cell-based. Conditions: for G1 (%) / G2 (%) / S + M (%) / Cells (1000/ml): L1210 cells, 24 h incubation; for G1 (%): percentage of cells in phase G1; for G2 (%): percentage of cells in phase G2; for S + M (%): percentage of cells in phases S + M; for Cells (1000/ml): starting cell number 46000 cells/ml. Here is the method: L1210 mouse lymphocytic leukemia cells growing in suspension culture were maintained at exponential growth in Dulbecco's modified Eagle's medium with 4.5 g/l glucose and 10% FBS, at 37° C. with 5% CO2. The experiments were started by adding the ethanol-dissolved anthracyclines, in amounts yielding to the appropriate final concentrations, to 25 cm^2 cell culture flasks. After the ethanol had evaporated, 5 ml of an approximately 50 000 cells per ml suspension was added to the flasks. Flow cytometric analysis was made of the original cell suspension and after one, two and three days incubation with or without the drugs.
Cells were prepared for flow cytometric DNA analysis according to the method of Vindelov et al. (1985). The analysis was performed with an Epics XL flow cytometer (Coulter Corporation, Miami, Fla.). Samples were illuminated with a […] air-cooled argon ion laser (488 nm) and the fluorescence of propidium iodide was detected through 620-nm band pass filter. The number of cells in each sample was separately counted by adding an internal calibrator (50 μl of a solution containing 1×10^6 Fluoresbrite beads/ml) to 50 μl of cell suspension.
Based on the flow cytometric studies, the cell cycle phases for the cells studied could be detected. Phase G1 is the stage for RNA and protein synthesis, but not for replication. Transition from phase G1 to phase S means the initiation of replication, and the phase will last until all of the DNA has been replicated. The period from phase S up to mitosis (M) is phase G2.
(In flow cytometry, cells or beads pass a laser one at a time.)

The test system of experiment [4] is KLN-205 lung squamous cell carcinoma. The experiment can be described thus: Cytotoxicity assay, ATP detection, KLN-205. The class given is cell-based, mouse. Conditions: KLN-205 cells in vitro, read-out: ED50 KLN-205. Here is the method:
as §1, §2, §3, §4, §5

In experiment [5] the test system is MES-SA human uterine sarcoma cells. Description: Cytotoxicity assay, luminescence ATP detection, MES-SA. The class given is cell-based. Conditions: three days incubation, ATP content, highest concentration 10^-5 M, read-out: ED50 (nM) MES-SA. Here is the method:
as §6, §7, §1, §2, §3

The next experiment relates to MLTC-1 leydig cell tumor. Description: Cytotoxicity assay, ATP detection, MLTC-1. It counts as cell-based, mouse. Conditions: MLTC-1 cells in vitro, read-out: ED50 MLTC-1. Here is the method: as §1, §2, §3, §4, §5
Experiment [6] has as its system MES-SA/D×5 uterine sarcoma cells (doxorubicin-resistant, MDR). Conditions: relative to MES-SA; Harker and Sikic, 1985; cited from earlier work.

Like-named read-outs stand apart in the source and are kept apart here.

`CC[C@@]1(O)C[C@H](O[C@H]2C[C@H](N(C)C)[C@H](O[C@H]3C[C@H](O)[C@H](O[C@H]4CCC(=O)[C@H](C)O4)[C@H](C)O3)[C@H](C)O2)c2c(cc3c(c2O)C(=O)c2c(O)cccc2C3=O)[C@H]1C(=O)OC` [Aclarubicin]: the EC50 in the experiment on B16-F0 melanoma (Mus musculus, B16F0) stood at 3 nM; in [1] (Homo sapiens, 72 h), 12 nM; with B16-F1 melanoma (Mus musculus) it was 4 nM; in experiment [2] (Mus musculus), 5 nM; in the experiment on SK-N-MC it was 9 nM; in [4] (Mus musculus) it was 12 nM. The EC50 was determined as 2 nM in [5] (Homo sapiens, 72 h) and 70 nM in the experiment with MLTC-1 leydig cell tumor (Mus musculus, Leydig). Further, the “G1 (%)” value in experiment [3] (concentration 1 × 10^−8M) came out at 43%; in [3] (concentration 3.3 × 10^−8M), 47%. Further, the “G2 (%)” value came to 14% in [3] (concentration 1 × 10^−8M) and 29% in [3] (concentration 3.3 × 10^−8M). Further, the “S + M (%)” value in experiment [3] (concentration 1 × 10^−8M) was 43%; in [3] (concentration 3.3 × 10^−8M) it was 24%. In addition, the “Cells (1000/ml)” value is recorded as 101 1000/ml in experiment [3] (concentration 1 × 10^−8M) and 78 1000/ml in experiment [3] (concentration 3.3 × 10^−8M). The “cell cycle phase in which cells are arrested” value in [3] (flow cytometric DNA analysis) is listed as “phase G1”.

Consider `CCC1(O)CC(OC2CC(N(C)C)C(OC3CC(O)C(OC4CC(O)C(O)C(C)O4)C(C)O3)C(C)O2)c2c(cc3c(c2O)C(=O)c2c(O)cccc2C3=O)C1C(=O)OC` (stereo not drawn) [Akv-Rhn-dF-dF, aklavinone-rhodosamine-2-deoxyfucose-2-deoxyfucose], for which the EC50 in the experiment with B16-F0 melanoma was 14 nM; in [1], 540 nM; in the experiment with B16-F1 melanoma, 12 nM; in experiment [2] it was 38 nM; in the experiment on SK-N-MC, 30 nM; in experiment [4] it was 90 nM. Moreover, the EC50 in experiment [5] was 6 nM; in the experiment with MLTC-1 leydig cell tumor it was 600 nM.

For the compound `COc1cccc2c1C(=O)c1c(O)c3c(c(O)c1C2=O)C[C@@](O)(C(=O)CO)C[C@@H]3O[C@H]1C[C@H](N)[C@H](O)[C@H](C)O1` [doxorubicin], the “resistance of MES-SA/D×5 variant to doxorubicin” value in [6] is 100 fold.
